Laboratory results reported in patent US20190241962A1, “GENETIC SUSCEPTIBILITY DIAGNOSIS AND TREATMENT OF MENTAL DISORDERS” (priority 2016, published 2019).
Entries after “also recorded” stand apart in the source; their conditions may differ.

Legend:
[1] = system: Sabra mice; assay: Open-field test, ambulation behavior, PCP mouse model of schizophrenia
[2] = system: FAAH; assay: RT-PCR FAAH mRNA level in the cortex; assay type: in vivo, mice
Experimental: (§1) 100 microliters of 2-propanol was added. […] RNA was stored at −80 deg C.

[3] = system: NAPE-PLD; assay: RT-PCR NAPE-PLD mRNA level in the cortex; assay type: in vivo, mice
Experimental: as §1

[4] = system: CB1 receptor; assay: RT-PCR CB1 receptor mRNA level in the cortex; assay type: in vivo, mice
Experimental: as §1

[5] = system: ABHD6; assay: RT-PCR ABHD6 mRNA level in the cortex; assay type: in vivo, mice
Experimental: as §1

[6] = system: MGL; assay: RT-PCR MGL mRNA level in the cortex; assay type: in vivo, mice
Experimental: as §1

[7] = system: IL-6; assay: RT-PCR IL-6 mRNA level in the cortex; assay type: in vivo, mice
Experimental: as §1

[8] = system: endocannabinoid catabolic enzymes (FAAH, MGL, ABHD6); assay: RT-PCR mRNA level of endocannabinoid catabolic enzymes in cortex and brainstem; assay type: in vivo, mice; settings: BCP after exposure to phencyclidine, females
Experimental: as §1

[9] = system: GAD67; assay: RT-PCR GAD67 mRNA level in the cortex; assay type: in vivo, mice
Experimental: as §1

[10] = system: CB2 receptor; assay: RT-PCR CB2 receptor mRNA level in the cortex; settings: PCP vs control group
Experimental: Each brain area was placed in an Eppendorf vessel and covered with RNAlater® solution (Ambion). Eppendorfs were stored overnight at 4° C. and then stored at (−)80° C. for permanent use.
Twenty microliters of 1-bromo-3-chloropropane were added and the Eppendorf was vortexed. After 10 min at room temperature it was centrifuged at 12,000×g for 15 minutes at 4° C. Then the colorless upper aqueous phase was removed to a fresh tube. 100 microliters of 2-propanol was added. Samples were centrifuged again 12,000×g for 10 minutes at 4° C. The supernatant was removed and the RNA pellet was washed with 200 ul cold 75% ethanol. The sample was re-centrifuged at 8000×g for 5 minutes at 4° C. The RNA pellet was dried for 5 minutes by air-drying on ice and 50 ul DEPC water were added to the RNA pellet. RNA was stored at −80 deg C. Genomic DNA strands were then removed by Turbo DNA-free Kit according to manufacturer's recommendation. RNA level was read by Nanodrop® reader. cDNA was prepared according to the manufacturer recommendation using High Capacity cDNA Reverse Transcription Kit (Applied Biosystems).
RT-PCR reaction mix was prepared with Power SYBR® Green PCR Master Mix (Applied Biosystems) according to manufacturer instructions. Mixes were read with Mx300P (Stratagen) and the results of Ct were analysed according to the delta-delta Ct method of analysis.

[11] = BCP after PCP, female mice, cortex
[12] = BCP after PCP, female mice, right and left cortices
[13] = BCP after PCP, male mice, cortex
[14] = PCP vs control group, female mice, left cortex
[15] = PCP vs control group, female mice, right and left cortices
[16] = PCP vs control group, male mice, cortex
[17] = PCP vs control group, female mice, right cortex
[18] = PCP vs control group, male mice, right cortex
[19] = PCP vs control group, male mice, left cortex

With `C=C1CC/C=C(\C)CC[C@@H]2[C@@H]1CC2(C)C` [BCP, beta-caryophyllene] the ambulation behavior ([1]; BCP 10 mg/kg one hour after PCP, Sabra female mice) was “reversed altered behavior”, the ambulation behavior ([1]; BCP 10 mg/kg one hour after PCP, Sabra male mice) was “reversed altered behavior” and the “FAAH mRNA level” value [2, 11] was “did not reverse; also recorded: did not alter gene expression of FAAH”. The “FAAH mRNA level” value ([2]; BCP after PCP, male mice) was “reversed the effect of PCP”, the “NAPE-PLD mRNA level” value [3, 12] was “did not reverse this effect” and the “NAPE-PLD mRNA level” value [3, 13] was “did not affect the expression level of NAPE-PLD mRNA”. The “CB1 receptor mRNA level” value [4, 11] was “did not alter gene expression of CB1 receptor”, the “CB1 receptor mRNA level” value [4, 13] was “did not alter gene expression of CB1 receptor” and the “ABHD6 mRNA level” value [5, 11] was “did not reverse; also recorded: did not alter gene expression of ABHD6”. For the same molecule, the “MGL mRNA level” value [6, 11] was “did not reverse; also recorded: did not alter gene expression of MGL”, the “IL-6 mRNA level” value [7, 11] was “did not alter gene expression of IL-6” and the “IL-6 mRNA level” value [7, 13] was “reversed the effect of PCP”. The “mRNA level of the selected endocannabinoid catabolic enzymes” value [8] was “did not lead to significant changes”, the “GAD67 mRNA level” value [9, 12] was “did not reverse this effect” and the “GAD67 mRNA level” value [9, 13] was “did not affect the expression level of GAD67 mRNA”.
For `c1ccc(C2(N3CCCCC3)CCCCC2)cc1` [PCP, Phencyclidine], the ambulation behavior ([1]; PCP 5 mg/kg vs control group, Sabra female mice) was “reduced”, the ambulation behavior ([1]; PCP 5 mg/kg vs control group, Sabra male mice) was “elevated” and the “FAAH mRNA level” value [2, 14] was “significantly decreased; also recorded: reduced”. The “NAPE-PLD mRNA level” value [3, 15] was “reduced”, the “NAPE-PLD mRNA level” value [3, 16] was “not altered” and the “CB1 receptor mRNA level” value [4, 17] was “elevated; also recorded: increased”. For the same molecule, the “CB1 receptor mRNA level” value [4, 18] was “elevated”, the “ABHD6 mRNA level” value [5, 14] was “significantly decreased; also recorded: reduced” and the “ABHD6 mRNA level” value [5, 17] was “not in the right cortex”. For the same molecule, the “ABHD6 mRNA level” value [5, 19] was “not in males”, the “MGL mRNA level” value [6, 14] was “significantly decreased; also recorded: reduced” and the “MGL mRNA level” value [6, 19] was “not in males”. The “CB2 receptor mRNA level” value ([10]; female mice, right cortex) was “reduced”, the “CB2 receptor mRNA level” value ([10]; left cortex) was “no change” and the “IL-6 mRNA level” value [7, 14] was “not in the left cortex”. For the same molecule, the “IL-6 mRNA level” value [7, 17] was “reduced”, the “IL-6 mRNA level” value [7, 19] was “not in the left cortex” and the “IL-6 mRNA level” value [7, 18] was “elevated”. The “GAD67 mRNA level” value [9, 15] was “reduced” and the “GAD67 mRNA level” value [9, 16] was “not altered”.
